Data taken from US10376520B2, “Methods for the treatment of cardiovascular disorders” (Galapagos NV, priority 2015, dated 2019).

System: RA patients
Assay: Total cholesterol determination, Study 1 (RA patients with inadequate response to methotrexate, add-on to MTX)
Type: in vivo, human
Experimental: Double-blind, placebo-controlled add on study in subjects with moderately to severely active RA who have an inadequate response to methotrexate (MTX) (oral or parenteral).
595 subjects randomized to one of 6 dose regimens of Compound 1 (dosed as a [Compound 1:HCl:3H2O]) (3 dose levels administered either once or twice daily) or placebo on top of each subject's stable dose of MTX.
Compound 1 (dosed as a [Compound 1:HCl:3H2O]) is dosed for twelve weeks once daily (q.d.) (50 mg, 100 mg or 200 mg) or twice daily (b.i.d.) (25 mg, 50 mg or 100 mg); or placebo.
At Week 12, the subjects on placebo who have not achieved 20% improvement in swollen joint count (SJC66) and tender joint count (TJC68) are re-randomized automatically to receive Compound 1 (dosed as a [Compound 1:HCl:3H2O]) either at 100 mg q.d. or 50 mg b.i.d. doses in a blinded fashion; subjects on 50 mg q.d. who have not achieved 20% improvement in SJC66 and TJC68 will be assigned to 100 mg q.d. and subjects on 25 mg b.i.d. that have not achieved a 20% improvement in SJC66 and TJC68 will be assigned to 50 mg b.i.d. Subjects who switch treatment at week 12 are handled as if they discontinued at week 12 for the purpose of statistical analysis, whereas subjects in the other groups will maintain their randomized treatment until Week 24.
This method is based on the determination of Δ^4 cholestenone after enzymatic cleavage of the cholesterol ester by cholesterol esterase, conversion of cholesterol by cholesterol oxidase, and subsequent measurement by the Trinder reaction of the hydrogen peroxide formed (Allain et al., 1974).
Cholesterol esters are cleaved by the action of cholesterol esterase to yield free cholesterol and fatty acids. Cholesterol oxidase then catalyzes the oxidation of cholesterol to cholest-4-en-3-one and hydrogen peroxide. In the presence of peroxidase, the hydrogen peroxide formed effects the oxidative coupling of phenol and 4-aminophenazone to form a red quinone-imine dye. The color intensity of the dye formed is directly proportional to the cholesterol concentration. It is determined by measuring the increase in absorbance.
Human serum and plasma samples cholesterol determination was done on a Roche/Hitachi Cobas c 701/702 system which automatically calculate the analyte concentration of each sample.

How did the “[total cholesterol] Mean percentage CFB - 24 weeks results” value (“[total cholesterol] Mean percentage CFB” for short) (continued 25 mg b.i.d (N = 69), week 12) turn out when `O=C(Nc1nc2cccc(-c3ccc(CN4CCS(=O)(=O)CC4)cc3)n2n1)C1CC1` [Compound 1, cyclopropanecarboxylic acid {5-[4-(1,1-dioxo-thiomorpholin-4-ylmethyl)-phenyl]-[1,2,4]triazolo[1,5-a]pyridin-2yl}-amide] was run?
The value was 6.38%.

And the “[total cholesterol] Mean percentage CFB” value (continued 25 mg b.i.d (N = 69), week 16)?
Its value is 5.51%.

And the “[total cholesterol] Mean percentage CFB” value (continued 25 mg b.i.d (N = 69), week 20)?
The value was 6.95%.

What about the “[total cholesterol] Mean percentage CFB” value (continued 25 mg b.i.d (N = 69), week 24) of the same molecule?
The value was 6.53%.

What about the “[total cholesterol] Mean percentage CFB” value (continued 50 mg b.i.d. (N = 85), week 1) of the same molecule?
Its value is 3.39%.

What about the “[total cholesterol] Mean percentage CFB” value (continued 50 mg b.i.d. (N = 85), week 2) of the same molecule?
The value was 3.87%.

What about the “[total cholesterol] Mean percentage CFB” value (continued 50 mg b.i.d. (N = 85), week 4) of the same molecule?
Its value is 7.04%.

And the “[total cholesterol] Mean percentage CFB” value (continued 50 mg b.i.d. (N = 85), week 8)?
The value was 5.63%.

And the “[total cholesterol] Mean percentage CFB” value (continued 50 mg b.i.d. (N = 85), week 12)?
The value was 5.67%.

And the “[total cholesterol] Mean percentage CFB” value (continued 50 mg b.i.d. (N = 85), week 16)?
The value was 6.23%.

And the “[total cholesterol] Mean percentage CFB” value (continued 50 mg b.i.d. (N = 85), week 20)?
The value was 7.91%.

What about the “[total cholesterol] Mean percentage CFB” value (continued 50 mg b.i.d. (N = 85), week 24) of the same molecule?
Its value is 7.97%.

And the “[total cholesterol] Mean percentage CFB” value (continued 50 mg q.d. (N = 63), week 1)?
The value was 0.77%.

What about the “[total cholesterol] Mean percentage CFB” value (continued 50 mg q.d. (N = 63), week 2) of the same molecule?
The value was −0.22%.

And the “[total cholesterol] Mean percentage CFB” value (continued 50 mg q.d. (N = 63), week 4)?
The value was 1.08%.

What about the “[total cholesterol] Mean percentage CFB” value (continued 50 mg q.d. (N = 63), week 8) of the same molecule?
The value was 3.49%.

And the “[total cholesterol] Mean percentage CFB” value (continued 50 mg q.d. (N = 63), week 12)?
Its value is 5.58%.

What about the “[total cholesterol] Mean percentage CFB” value (continued 50 mg q.d. (N = 63), week 16) of the same molecule?
The value was 5.15%.

What about the “[total cholesterol] Mean percentage CFB” value (continued 50 mg q.d. (N = 63), week 20) of the same molecule?
The value was 4.68%.

And the “[total cholesterol] Mean percentage CFB” value (continued 50 mg q.d. (N = 63), week 24)?
Its value is 6.75%.

And the “[total cholesterol] Mean percentage CFB” value (continued 100 mg b.i.d. (N = 84), week 1)?
Its value is 6.85%.

And the “[total cholesterol] Mean percentage CFB” value (continued 100 mg b.i.d. (N = 84), week 2)?
Its value is 8.38%.

And the “[total cholesterol] Mean percentage CFB” value (continued 100 mg b.i.d. (N = 84), week 4)?
The value was 9.86%.

And the “[total cholesterol] Mean percentage CFB” value (continued 100 mg b.i.d. (N = 84), week 8)?
The value was 14.79%.

What about the “[total cholesterol] Mean percentage CFB” value (continued 100 mg b.i.d. (N = 84), week 12) of the same molecule?
The value was 14.98%.

And the “[total cholesterol] Mean percentage CFB” value (continued 100 mg b.i.d. (N = 84), week 16)?
Its value is 12.82%.

And the “[total cholesterol] Mean percentage CFB” value (continued 100 mg b.i.d. (N = 84), week 20)?
The value was 12.71%.

What about the “[total cholesterol] Mean percentage CFB” value (continued 100 mg b.i.d. (N = 84), week 24) of the same molecule?
Its value is 15.39%.

And the “[total cholesterol] Mean percentage CFB” value (continued 100 mg q.d. (N = 85), week 1)?
Its value is 3.65%.

And the “[total cholesterol] Mean percentage CFB” value (continued 100 mg q.d. (N = 85), week 2)?
Its value is 2.32%.

And the “[total cholesterol] Mean percentage CFB” value (continued 100 mg q.d. (N = 85), week 4)?
Its value is 4.86%.

What about the “[total cholesterol] Mean percentage CFB” value (continued 100 mg q.d. (N = 85), week 8) of the same molecule?
The value was 3.79%.

And the “[total cholesterol] Mean percentage CFB” value (continued 100 mg q.d. (N = 85), week 12)?
The value was 5.39%.

And the “[total cholesterol] Mean percentage CFB” value (continued 100 mg q.d. (N = 85), week 16)?
The value was 1.87%.

What about the “[total cholesterol] Mean percentage CFB” value (continued 100 mg q.d. (N = 85), week 20) of the same molecule?
The value was 3.28%.

What about the “[total cholesterol] Mean percentage CFB” value (continued 100 mg q.d. (N = 85), week 24) of the same molecule?
Its value is 5.05%.

What about the “[total cholesterol] Mean percentage CFB” value (continued 200 mg q.d. (N = 86), week 1) of the same molecule?
The value was 5.53%.

And the “[total cholesterol] Mean percentage CFB” value (continued 200 mg q.d. (N = 86), week 2)?
The value was 9.86%.

And the “[total cholesterol] Mean percentage CFB” value (continued 200 mg q.d. (N = 86), week 4)?
Its value is 8.99%.

What about the “[total cholesterol] Mean percentage CFB” value (continued 200 mg q.d. (N = 86), week 8) of the same molecule?
Its value is 6.72%.

What about the “[total cholesterol] Mean percentage CFB” value (continued 200 mg q.d. (N = 86), week 12) of the same molecule?
Its value is 10.16%.

And the “[total cholesterol] Mean percentage CFB” value (continued 200 mg q.d. (N = 86), week 16)?
Its value is 9.19%.

What about the “[total cholesterol] Mean percentage CFB” value (continued 200 mg q.d. (N = 86), week 20) of the same molecule?
The value was 8.00%.

What about the “[total cholesterol] Mean percentage CFB” value (continued 200 mg q.d. (N = 86), week 24) of the same molecule?
Its value is 9.94%.

What about the “[total cholesterol] Mean percentage CFB” value (from 25 mg b.i.d. to 50 mg b.i.d at 12 weeks (N = 17), week 1) of the same molecule?
The value was 0.55%.

What about the “[total cholesterol] Mean percentage CFB” value (from 25 mg b.i.d. to 50 mg b.i.d at 12 weeks (N = 17), week 2) of the same molecule?
Its value is 2.37%.

What about the “[total cholesterol] Mean percentage CFB” value (from 25 mg b.i.d. to 50 mg b.i.d at 12 weeks (N = 17), week 4) of the same molecule?
The value was −2.60%.

And the “[total cholesterol] Mean percentage CFB” value (from 25 mg b.i.d. to 50 mg b.i.d at 12 weeks (N = 17), week 8)?
Its value is −2.81%.

What about the “[total cholesterol] Mean percentage CFB” value (from 25 mg b.i.d. to 50 mg b.i.d at 12 weeks (N = 17), week 12) of the same molecule?
Its value is 0.30%.

And the “[total cholesterol] Mean percentage CFB” value (from 25 mg b.i.d. to 50 mg b.i.d at 12 weeks (N = 17), week 16)?
The value was 4.23%.

And the “[total cholesterol] Mean percentage CFB” value (from 25 mg b.i.d. to 50 mg b.i.d at 12 weeks (N = 17), week 24)?
The value was 2.66%.

What about the “[total cholesterol] Mean percentage CFB” value (from 50 mg q.d. to 100 mg q.d. at 12 weeks (N = 19), week 1) of the same molecule?
Its value is 1.24%.

What about the “[total cholesterol] Mean percentage CFB” value (from 50 mg q.d. to 100 mg q.d. at 12 weeks (N = 19), week 2) of the same molecule?
The value was 4.36%.

And the “[total cholesterol] Mean percentage CFB” value (from 50 mg q.d. to 100 mg q.d. at 12 weeks (N = 19), week 4)?
The value was 1.67%.

And the “[total cholesterol] Mean percentage CFB” value (from 50 mg q.d. to 100 mg q.d. at 12 weeks (N = 19), week 8)?
Its value is 2.29%.

And the “[total cholesterol] Mean percentage CFB” value (from 50 mg q.d. to 100 mg q.d. at 12 weeks (N = 19), week 12)?
The value was 2.39%.

What about the “[total cholesterol] Mean percentage CFB” value (from 50 mg q.d. to 100 mg q.d. at 12 weeks (N = 19), week 16) of the same molecule?
The value was 7.55%.

What about the “[total cholesterol] Mean percentage CFB” value (from 50 mg q.d. to 100 mg q.d. at 12 weeks (N = 19), week 20) of the same molecule?
The value was 6.69%.

And the “[total cholesterol] Mean percentage CFB” value (from 50 mg q.d. to 100 mg q.d. at 12 weeks (N = 19), week 24)?
Its value is 5.15%.

And the “[total cholesterol] Mean percentage CFB” value (placebo switched to 50 mg b.i.d at week 12 (N = 15), week 16)?
The value was 3.97%.

What about the “[total cholesterol] Mean percentage CFB” value (placebo switched to 50 mg b.i.d at week 12 (N = 15), week 20) of the same molecule?
The value was 5.80%.

What about the “[total cholesterol] Mean percentage CFB” value (placebo switched to 50 mg b.i.d at week 12 (N = 15), week 24) of the same molecule?
The value was 3.22%.
